# Experimental data from publication PMC9004346, “Development of small cyclic peptides targeting the CK2α/β interface” (Chemical Communications (Cambridge, England), 2022).
# Read-outs that look alike come from different tables or passages of the source.
substance,measurement,setting,value
CC4RLYGFKCC4,"ring closure, yield after HPLC","crosslinker bond, 29-membered ring, TCEP, dichloroacetone, phosphate buffer pH 8/DMF 1:2, 1.3 mM",8%
CC6RLYGFKCC6,"ring closure, yield after HPLC","crosslinker bond, 27-membered ring, TCEP/K2CO3, CH2I2/NEt3, H2O/THF, 3.7 mM",19%
CC7RLYGFKCC7,"ring closure, yield after HPLC","crosslinker bond, 33-membered ring, N-(4,6-divinylpyrimidin-2-yl)-N-methylglycine, phosphate buffer pH 8/DMF, 1.6 mM",17%
CC8RLYGFKWC8,"ring closure, yield after HPLC","thioether bond, 27-membered ring, I2, H2O/MeCN, 0.46 mM",25%
GXC1RLYGFKWHXC1GG,"ring closure, yield after HPLC","crosslinker bond, 39-membered ring, 3,5-diethynylbenzoic acid/CuSO4/THPTA/Na ascorbate, tBuOH/H2O 1:1, 0.48 mM",2%
JC2RLYGFKXC2,"ring closure, yield after HPLC","triazole bond, 27-membered ring, CuSO4/Na ascorbate/DIEA, H2O, 1.3 mM",19%
JC3RLYGFKXC3,"ring closure, yield after HPLC","triazole bond, 26-membered ring, [Cp*RuCl]4 30 mol%, tBuOH/H2O 1:1, 0.61 mM",3%
